Measurements taken from patent publication US20250154099A1, “PREPARATION METHOD OF 2-PHENYLINDOLE DERIVATIVES AND APPLICATION THEREOF” (Shihezi University, priority 2022, published 2025).
Converted amounts (≈) assume the structure as drawn. Where two headings read alike, the source gives them in different places.

Legend:
[1] = test system: Candida albicans BNCC186382; assay: MIC by microdilution method, sensitive Candida albicans; assay type: cell-based; conditions: Candida albicans, read-out: MIC Candida albicans
Source text: (§1) Used bacteria: including drug-resistant bacteria and sensitive bacteria: the used sensitive strains include Cryptococcus neoformans BNCC225501, Candida albicans BNCC186382, Aspergillus fumigatus Fresenius BNCC338385, Escherichia coli BNCC336902, Staphylococcus aureus BNCC186335 and Pseudomonas aeruginosa Migula BNCC337940, and the used drug-resistant Candida albicans is clinically isolated azole multi-drug resistant Candida albicans (CA10) donated by Qianfoshan Hospital in Shandong Province. The strains are stored in normal saline containing 20% glycerol at −80° C. for a long time. Before operation, the strains are lined and transferred to a YPD solid plate, and subjected to static culture at 30° C. for 24 h; single colonies are selected and transferred to a YPD liquid medium, and cultured at 200 rpm at 30° C. overnight; and the overnight cultured bacterial solution is inoculated into a new YPD liquid medium at a ratio of about 1:100, and subjected to shaking culture at 200 rpm at 30° C. for 4 h so that Candida albicans is in a logarithmic phase.
(§2) Culture medium: the culture medium used by the microdilution method is RPMI-1640 culture medium (Gibco).
(§3) 1.2 Operation and results of detection of minimum inhibitory concentration (MIC) of the compounds and the azole drugs by the microdilution method: the MIC of the synthesized compound and the azole drug fluconazole for the standard strains is detected by the microdilution method according to fungal sensitivity detection method (M27-A3) established by the Clinical and Laboratory Standards Institute (CLSI). Specific steps are as follows: the prepared strain concentration is adjusted to 0.5-2.5×10^3 CFU/mL by using RPMI-1640 medium. 200 μL of bacterial solution containing the highest concentration of the drug to be detected is added into the first well of a 96-well plate, and 100 μL of blank bacterial solution without drug is added into each of the other wells; the bacterial solution is diluted to a series of concentration gradients by a double gradient dilution method; the well plate is subjected to static culture at constant temperature of 35° C. for 24 h; after the absorbance (OD) of each concentration gradient at 570 nm is detected by a microplate reader and the absorbance of a blank medium is subtracted, the growth rate=dosing hole value/control hole value ×100%, the inhibition rate=1−growth rate, and the minimum concentration with the inhibition rate greater than 80% is the minimum inhibitory concentration (MIC) value.

[2] = test system: Cryptococcus neoformans BNCC225501; assay: MIC by microdilution method, sensitive Cryptococcus neoformans; assay type: cell-based; conditions: Cryptococcus neoformans, read-out: MIC Cryptococcus neoformans
Source text: as §1, §2, §3

[3] = test system: Aspergillus fumigatus Fresenius BNCC338385; assay: MIC by microdilution method, sensitive Aspergillus fumigatus Fresenius; assay type: cell-based; conditions: Aspergillus fumigatus, 24 h, read-out: MIC Aspergillus fumigatus Fresenius
Source text: as §1, §2, §3

[4] = test system: Staphylococcus aureus BNCC186335; assay: MIC by microdilution method, sensitive Staphylococcus aureus; assay type: cell-based; conditions: read-out: MIC Staphylococcus aureus
Source text: as §1, §2, §3

[5] = test system: Escherichia coli BNCC336902; assay: MIC by microdilution method, sensitive Escherichia coli; assay type: cell-based; conditions: read-out: MIC Escherichia coli
Source text: as §1, §2, §3

[6] = test system: Pseudomonas aeruginosa Migula BNCC337940; assay: MIC by microdilution method, sensitive Pseudomonas aeruginosa Migula; assay type: cell-based; conditions: 24 h, read-out: MIC Pseudomonas aeruginosa Migula
Source text: as §1, §2, §3

[7] = test system: Drug-resistant Candida albicans CA10; assay: MIC by microdilution method, drug-resistant Candida albicans CA10; assay type: cell-based; conditions: clinically isolated azole multi-drug resistant strain CA10; 24 h
Source text: as §1, §2, §3

Candida albicans CA10 = assay: Checkerboard microdilution assay of compound combined with fluconazole, FICI model; assay type: cell-based; conditions: for MIC of compound combined: compound concentration in combination with fluconazole; for MIC of compound combined / MIC of azole (fluconazole) combined: inhibition rate about 80%; for FICI: compound plus fluconazole; for MIC of azole (fluconazole) combined: fluconazole concentration in combination with the compound; for MIC: Candida albicans
Description: The concentration of Candida albicans CA10 is adjusted to 0.5-2.5×10^3 CFU/mL by using RPMI-1640 medium, and the diluted bacterial solution is used for preparing a working solution of the compound and the azole drug with double concentration gradient. 50 μl of working solution of double concentration of azole drugs and working solution of double concentration of the compound to be detected at each concentration gradient are added in the longitudinal (A-H) direction and transverse (1-12) direction of the 96-well plate respectively, so that the final drug concentration range of fluconazole is 4-64 μg/ml, and the drug concentration range of the compound is 256-16 μg/ml. The 96-well plate is cultured in a constant temperature incubator at 35° C. for 24 h. The amount of viable bacteria is detected with an XTT cell proliferation assay kit, and the absorbance of each well at 490 nm wavelength is detected by the microplate reader. Growth rate=dosing well value/control well value×100%, and inhibition rate=1−growth rate. The MIC when the inhibition rate is about 80% is a break point of the combination of two drugs.
The combination data of the compound and the azole drug collected by the checkerboard microdilution assay are analyzed by an FICI (fractional inhibitory concentration index) model, and the interaction effects are evaluated.
The FICI model can be expressed by the following formula: […]
Wherein: MICA and MICB are MIC values of drug A and drug B used separately, while MICAB and MICBA are the concentrations of drug A and drug B corresponding to the minimum effective dose of the combination of drug A and drug B.

[8] = test system: RAW 264.7 murine macrophage cells; assay: MTT cytotoxicity test on RAW 264.7; assay type: cell-based, mouse; conditions: for IC50: Mus musculus, RAW264.7, 24 h, read-out: IC50 RAW 264.7 cell viability
Description: 3.1.1 Cell line: RAW 264.7 murine macrophage cells are donated by Shihezi University College of Pharmacy, and cultured in a 37° C. constant temperature incubator with high glucose DMEM medium (Gibco), 10% FBS serum (Gibco) and 5% CO2, and subculturing and related experimental operation are conducted when cell fusion degree reaches about 70-80%.
3.1.2 Materials and reagents: fetal bovine serum (American BI company), DMEM high glucose medium (American Gibco company), penicillin-streptomycin solution (Shanghai Solarbio company), PBS buffer solution (American Gibco company), isopropyl alcohol (analytically pure), dimethyl sulfoxide (DMSO) (Shanghai Solarbio company), and MTT powder (Shanghai Solarbio company).
Logarithmic RAW 264.7 cells are taken; cell suspension is prepared with a complete medium; the concentration of the cell suspension is adjusted to about 5×10^4 cells/mL; 200 μl of cell suspension is added into each hole of the 96-well culture plate and cultured in 5% CO2 in an incubator at 37° C. for about 24 h until the cells grow to the cell wall (at density of 50%); the medium is absorbed by a 5 ml needle tube or negative pressure; RAW 264.7 is divided into a blank group, a solvent control group and a drug administration group; in the blank group, there is no cell, and a medium, MTT and DMSO are added; in the solvent control group, cells, the same concentration of drug dissolving media, culture solution, MTT and DMSO are added; in the drug administration group, medical solution for diluting the concentration gradient with serum-free medium (containing 1% PE) is added; each concentration shall set at least 3 complex wells; 100 μl of medical solution is added into each well; and the culture plate is continued to be incubated in the incubator for 24 h. […] 100 μl of DMSO is added into each well to dissolve formazan crystals, and shaken in a shaker for 10 min at low speed to fully dissolve the crystals. The absorbance (OD) value of each well at 490 nm is determined by the microplate reader, and the cell viability is calculated by the formula: Cell viability (%)=(OD drug administration group−OD blank group)/(OD solvent control group−OD blank group)× 100%.
OD values at 490 nm are determined by the experimental method in each group, and the data are subjected to one-way analysis of variance by Graphpad prism 8.0 software.

[9] = BNCC186382, sensitive strain, 35° C., 24 h, minimum concentration with inhibition rate greater than 80%
[10] = BNCC225501, sensitive strain, 35° C., 24 h, minimum concentration with inhibition rate greater than 80%
[11] = sensitive strain, 35° C., minimum concentration with inhibition rate greater than 80%
[12] = BNCC186335, sensitive strain, 35° C., 24 h, minimum concentration with inhibition rate greater than 80%
[13] = BNCC336902, sensitive strain, 35° C., 24 h, minimum concentration with inhibition rate greater than 80%
[14] = CA10, compound alone, read-out: MIC of compound used separately

Row | MIC80 Drug-resistant Candida albicans CA10 [7] | MIC of compound combined (Candida albicans CA10; CA10) | MIC of azole (fluconazole) combined (Candida albicans CA10; CA10) | MIC [1, 9] | MIC [2, 10] | MIC [3, 11] | MIC [4, 12] | MIC [5, 13] | MIC [6, 11] | MIC (Candida albicans CA10; [14]) | SMILES | FICI (Candida albicans CA10; CA10) | IC50 [8] | toxicity to RAW 264.7 cells ([8]; 24 h) | other results
1 | 32 µg/mL (≈ 141 µM) | 16 µg/mL | 8 µg/mL | 16 µg/mL (≈ 70.3 µM) | 16 µg/mL (≈ 70.3 µM) | 8 µg/mL (≈ 35.1 µM) | 8 µg/mL (≈ 35.1 µM) | 16 µg/mL (≈ 70.3 µM) | 16 µg/mL (≈ 70.3 µM) | 32 µg/mL | Clc1ccc2cc(-c3ccccc3)[nH]c2c1 [Compound 4] | 0.563 | 100 µM | no obvious toxicity | sensitivity of clinical multi-drug resistant strain CA10 to the azole drug (Candida albicans CA10; combination with fluconazole): can improve the sensitivity
2 | 256 µg/mL (≈ 1210 µM) | 64 µg/mL | 8 µg/mL | 16 µg/mL (≈ 75.7 µM) | 256 µg/mL (≈ 1210 µM) | 16 µg/mL (≈ 75.7 µM) | 32 µg/mL (≈ 151 µM) | 16 µg/mL (≈ 75.7 µM) | 256 µg/mL (≈ 1210 µM) | > 256 µg/mL | Fc1ccc2cc(-c3ccccc3)[nH]c2c1 [Compound 5] | 0.313 | 12.5 µM | no obvious toxicity | cell proliferation of RAW 264.7 ([8]; 24 h, different concentrations): may inhibit cell proliferation in a concentration-dependent way

Row | SMILES | MIC80 Drug-resistant Candida albicans CA10 [7] | MIC of compound combined (Candida albicans CA10; CA10) | MIC of azole (fluconazole) combined (Candida albicans CA10; CA10) | MIC [1, 9] | MIC [2, 10] | MIC [3, 11] | MIC [4, 12] | MIC [5, 13] | MIC [6, 11] | MIC (Candida albicans CA10; [14]) | FICI (Candida albicans CA10; CA10) | IC50 [8] | toxicity to RAW 264.7 cells ([8]; 24 h) | other results
3 | Cc1ccccc1-c1cc2ccccc2[nH]1 [Compound 2] | 32 µg/mL (≈ 154 µM) | 8 µg/mL | 8 µg/mL | – | – | – | – | – | – | – | 0.313 | 50 µM | – | MIC ([1]; BNCC186382, 24 h): 4 µg/mL (≈ 19.3 µM); MIC ([2]; BNCC225501, 24 h): 2 µg/mL (≈ 9.65 µM); MIC [3]: 16 µg/mL (≈ 77.2 µM); MIC ([4]; BNCC186335, 24 h): 8 µg/mL (≈ 38.6 µM); MIC ([5]; BNCC336902, 24 h): 8 µg/mL (≈ 38.6 µM); MIC [6]: 256 µg/mL (≈ 1240 µM); MIC (Candida albicans CA10; CA10, read-out: MIC of compound used separately): 32 µg/mL
